# How the values were obtained:
# Type in all cases: in vivo
# wheat (Tr) = test: Test Example 5: crop plant selectivity by upland field soil treatment (wheat), phytotoxicity; parameters: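 grade of crop injury; 5 = at least 90%; 4 = 70 to 90%; 3 = 50 to 70%; 2 = 30 to 50%; 1 = 10 to 30%; 0 = under 10%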; details: 21st day after application
# Procedure, shortened: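 Wheat and weeds were sown in sand-filled pots and covered with soil, then treated by soil application. Plants grew in a greenhouse, and herbicidal effect and crop phytotoxicity were scored on a rating scale 21 days after application.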
# monochoria (Mo) = test: Test Example 1: herbicidal effects by paddy field soil treatment; details: 100 g of the active ingredient per 10 ares, 21st day after the application, index 0-5 of Table 47;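 further: grade of growth control; 5 = at least 90%; 4 = 70 to 90%; 3 = 50 to 70%; 2 = 30 to 50%; 1 = 10 to 30%; 0 = under 10%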
# Procedure, shortened: (§1)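 Herbicidal effect was scored against a graded standard 21 days after treatment. Seeds were sown in puddled, leveled paddy soil flooded to 3 cm depth, and the active ingredient was applied at 100 g per 10 ares before greenhouse culture.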
# barnyardgrass (Ec) [1] = test: as above; details: 100 g of the active ingredient per 10 ares, 21st day after the application, index 0-5 of Table 47
# Procedure, shortened: as §1
# bulrush (Sc) = test: as above; details: 100 g of the active ingredient per 10 ares, 21st day after the application, index 0-5 of Table 47;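 further: grade of growth control; 5 = at least 90%; 4 = 70 to 90%; 3 = 50 to 70%; 2 = 30 to 50%; 1 = 10 to 30%; 0 = under 10%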
# Procedure, shortened: as §1
# soybean (Gl) = test: Test Example 6: crop plant selectivity by upland field soil treatment (soybean), phytotoxicity; parameters: scale not given here; details: 21st day after application
# Procedure, shortened: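 Seeds are sown in sand and covered with soil. The soil is treated with test compound. Pots are kept in a greenhouse. Weed control and soybean damage are rated visually 21 days after application.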
# pale smartweed (Po) = test: Test Example 3: herbicidal effects by upland field foliage treatment; parameters: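 grade of growth control; 5 = at least 90%; 4 = 70 to 90%; 3 = 50 to 70%; 2 = 30 to 50%; 1 = 10 to 30%; 0 = under 10%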
# Procedure, shortened: (§2)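 Test plants had been raised from seed for 2 weeks in a greenhouse, in soil-covered sand pots of 120 cm^2, and were returned there after spraying.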
# Diaitaria ciliaris (Di) = test: as above; parameters: scale not given here
# Procedure, shortened: as §2
# [2] = tested on: common lambsquarters (Ch); test: as above; parameters: scale not given here
# Procedure, shortened: as §2
# slender amaranth (Am) = test: as above; parameters: scale not given here
# Procedure, shortened: as §2
# rice flatsedge (Ci) = test: as above; parameters: scale not given here
# Procedure, shortened: as §2
# barnyardgrass (Ec) [3] = test: as above; parameters: scale not given here
# Procedure, shortened: as §2
# [4] = 100 g active ingredient per 10 ares, evaluated 14th day after treatment
# [5] = 100 g of the active ingredient per 10 ares, evaluated on the 14th day after treatment
structure (smiles),measurement,setting,value
CCc1cc2c(-c3ccc(C(F)(F)F)n(C)c3=O)c(F)cc(Cl)c2o1 [Compound 4-2],Phytotoxicity Tr,wheat (Tr); dose 1.6 g ai/10a,1
same,Herbicidal effects Mo,monochoria (Mo),5
same,Herbicidal effects Ec,barnyardgrass (Ec) [1],5
same,Herbicidal effects Sc,bulrush (Sc),5
same,Phytotoxicity Gl,soybean (Gl); dose 1.6 g ai/10a,1
same,Herbicidal effects Po,pale smartweed (Po); [4],5
same,Herbicidal effects Di,Diaitaria ciliaris (Di); [4],5
same,Herbicidal effects Ch,[2]; [4],5
same,Herbicidal effects Am,slender amaranth (Am); [4],5
same,Herbicidal effects Ci,rice flatsedge (Ci); [4],5
same,Herbicidal effects Ec,barnyardgrass (Ec) [3]; [4],5
CCCc1cc2c(-c3ccc(C(F)(F)F)n(C)c3=O)c(F)cc(Cl)c2o1 [Compound 4-3],Phytotoxicity Tr,wheat (Tr); dose 6.3 g ai/10a,2
same,Herbicidal effects Mo,monochoria (Mo),5
same,Herbicidal effects Ec,barnyardgrass (Ec) [1],5
same,Herbicidal effects Sc,bulrush (Sc),5
same,Phytotoxicity Gl,soybean (Gl); dose 6.3 g ai/10a,1
same,Herbicidal effects Po,pale smartweed (Po); [4],5
same,Herbicidal effects Di,Diaitaria ciliaris (Di); [4],5
same,Herbicidal effects Ch,[2]; [4],5
same,Herbicidal effects Am,slender amaranth (Am); [4],5
same,Herbicidal effects Ci,rice flatsedge (Ci); [4],5
same,Herbicidal effects Ec,barnyardgrass (Ec) [3]; [4],5
CCc1cc2c(Cl)cc(F)c(-c3ccc(C(F)(F)F)n(C)c3=O)c2o1 [Compound 5-2],Phytotoxicity Tr,wheat (Tr); dose 6.3 g ai/10a,1
same,Herbicidal effects Mo,monochoria (Mo),5
same,Herbicidal effects Ec,barnyardgrass (Ec) [1],5
same,Herbicidal effects Sc,bulrush (Sc),5
same,Phytotoxicity Gl,soybean (Gl); dose 6.3 g ai/10a,1
same,Herbicidal effects Po,pale smartweed (Po); [4],5
same,Herbicidal effects Di,Diaitaria ciliaris (Di); [4],5
same,Herbicidal effects Ch,[2]; [4],5
same,Herbicidal effects Am,slender amaranth (Am); [4],5
same,Herbicidal effects Ci,rice flatsedge (Ci); [4],5
same,Herbicidal effects Ec,barnyardgrass (Ec) [3]; [4],5
C#CCN1C(=O)COc2cc(F)c(-c3cn(C)c(C(F)(F)F)cc3=O)cc21 [Compound 7-1],Phytotoxicity Tr,wheat (Tr); dose 6.3 g ai/10a,2
same,Herbicidal effects Mo,monochoria (Mo),5
same,Herbicidal effects Ec,barnyardgrass (Ec) [1],5
same,Herbicidal effects Sc,bulrush (Sc),5
same,Phytotoxicity Gl,soybean (Gl); dose 6.3 g ai/10a,1
same,Herbicidal effects Po,pale smartweed (Po); [4],5
same,Herbicidal effects Di,Diaitaria ciliaris (Di); [4],5
same,Herbicidal effects Ch,[2]; [4],5
same,Herbicidal effects Am,slender amaranth (Am); [4],5
same,Herbicidal effects Ci,rice flatsedge (Ci); [4],5
same,Herbicidal effects Ec,barnyardgrass (Ec) [3]; [4],5
"CON=Cc1cc(-c2ccc(C(F)(F)F)n(C)c2=O)c(F)cc1Cl [Compound No. 1-72, 5-(1-methyl-6-trifluoromethyl-2(1H)-pyridon-3-yl)-2-chloro-4-fluorobenzaldehydeoxime-O-methyl ether]",Phytotoxicity Tr,wheat (Tr); dose 1.6 g ai/10a,1
same,Herbicidal effects Mo,monochoria (Mo),5
same,Herbicidal effects Ec,barnyardgrass (Ec) [1],5
same,Herbicidal effects Sc,bulrush (Sc),5
same,Phytotoxicity Gl,soybean (Gl); dose 1.6 g ai/10a,1
same,Phytotoxicity Gl,soybean (Gl); dose 6.3 g ai/10a,2
same,Herbicidal effects Po,pale smartweed (Po); [5],5
same,Herbicidal effects Di,Diaitaria ciliaris (Di); [5],5
same,Herbicidal effects Ch,[2]; [5],5
same,Herbicidal effects Am,slender amaranth (Am); [5],5
same,Herbicidal effects Ci,rice flatsedge (Ci); [5],5
same,Herbicidal effects Ec,barnyardgrass (Ec) [3]; [5],5
"CCCC(=O)c1cc(-c2ccc(C(F)(F)F)n(C)c2=O)c(F)cc1Cl [Compound No. 1-194, 3-[4-chloro-2-fluoro-5-(1-oxobutyl)phenyl]-1-methyl-6-trifluoromethyl-2(1H)-pyridone]",Phytotoxicity Tr,wheat (Tr); dose 6.3 g ai/10a,1
same,Herbicidal effects Mo,monochoria (Mo),5
same,Herbicidal effects Ec,barnyardgrass (Ec) [1],5
same,Herbicidal effects Sc,bulrush (Sc),5
same,Phytotoxicity Gl,soybean (Gl); dose 6.3 g ai/10a,1
same,Herbicidal effects Po,pale smartweed (Po); [4],5
same,Herbicidal effects Di,Diaitaria ciliaris (Di); [4],5
same,Herbicidal effects Ch,[2]; [4],5
same,Herbicidal effects Am,slender amaranth (Am); [4],5
same,Herbicidal effects Ci,rice flatsedge (Ci); [4],5
same,Herbicidal effects Ec,barnyardgrass (Ec) [3]; [4],5
"C#CCN1C(=O)COc2cc(F)c(-c3ccc(C(F)(F)F)n(C)c3=O)cc21 [Compound No. 2-1, 3-[7-fluoro-2,3-dihydro-4-(2-propynyl)-1,4-benzoxazin-3-on-6-yl]-1-methyl-6-trifluoromethyl-2(1H)-pyridone]",Phytotoxicity Tr,wheat (Tr); dose 1.6 g ai/10a,0
same,Herbicidal effects Mo,monochoria (Mo),5
same,Herbicidal effects Ec,barnyardgrass (Ec) [1],5
same,Herbicidal effects Sc,bulrush (Sc),5
same,Phytotoxicity Gl,soybean (Gl); dose 1.6 g ai/10a,0
same,Phytotoxicity Gl,soybean (Gl); dose 6.3 g ai/10a,1
same,Herbicidal effects Po,pale smartweed (Po); [4],5
same,Herbicidal effects Di,Diaitaria ciliaris (Di); [4],5
same,Herbicidal effects Ch,[2]; [4],5
same,Herbicidal effects Am,slender amaranth (Am); [4],5
same,Herbicidal effects Ci,rice flatsedge (Ci); [4],5
same,Herbicidal effects Ec,barnyardgrass (Ec) [3]; [4],5
"C#CCn1c(=O)sc2cc(F)c(-c3ccc(C(F)(F)F)n(C)c3=O)cc21 [Compound No. 3-1, 3-[6-fluoro-3-(2-propynyl)-benzothiazolin-2-on-5-yl]-1-methyl-6-trifluoromethyl-2(1H)-pyridone]",Phytotoxicity Tr,wheat (Tr); dose 6.3 g ai/10a,1
same,Herbicidal effects Mo,monochoria (Mo),5
same,Herbicidal effects Ec,barnyardgrass (Ec) [1],5
same,Herbicidal effects Sc,bulrush (Sc),5
same,Phytotoxicity Gl,soybean (Gl); dose 6.3 g ai/10a,1
same,Herbicidal effects Po,pale smartweed (Po); [4],5
same,Herbicidal effects Di,Diaitaria ciliaris (Di); [4],5
same,Herbicidal effects Ch,[2]; [4],5
same,Herbicidal effects Am,slender amaranth (Am); [4],5
same,Herbicidal effects Ci,rice flatsedge (Ci); [4],5
same,Herbicidal effects Ec,barnyardgrass (Ec) [3]; [4],5
"COCc1cc2c(-c3ccc(C(F)(F)F)n(C)c3=O)c(F)cc(Cl)c2o1 [Compound No. 4-4, 3-(7-chloro-5-fluoro-2-methoxymethylbenzofuran-4-yl)-1-methyl-6-trifluoromethyl-2-(1H)-pyridone]",Phytotoxicity Tr,wheat (Tr); dose 1.6 g ai/10a,2
same,Herbicidal effects Mo,monochoria (Mo),5
same,Herbicidal effects Ec,barnyardgrass (Ec) [1],5
same,Herbicidal effects Sc,bulrush (Sc),5
same,Phytotoxicity Gl,soybean (Gl); dose 6.3 g ai/10a,2
same,Herbicidal effects Po,pale smartweed (Po); [4],5
same,Herbicidal effects Di,Diaitaria ciliaris (Di); [4],5
same,Herbicidal effects Ch,[2]; [4],5
same,Herbicidal effects Am,slender amaranth (Am); [4],5
same,Herbicidal effects Ci,rice flatsedge (Ci); [4],5
same,Herbicidal effects Ec,barnyardgrass (Ec) [3]; [4],5
"Cn1c(C(F)(F)F)ccc(-c2c(F)cc(Cl)c3oc(CO)cc23)c1=O [Compound No. 4-5, 3-(7-chloro-5-fluoro-2-hydroxymethylbenzofuran-4-yl)-1-methyl-6-trifluoromethyl-2-(1H)-pyridone]",Phytotoxicity Tr,wheat (Tr); dose 6.3 g ai/10a,1
same,Herbicidal effects Mo,monochoria (Mo),5
same,Herbicidal effects Ec,barnyardgrass (Ec) [1],5
same,Herbicidal effects Sc,bulrush (Sc),5
same,Phytotoxicity Gl,soybean (Gl); dose 6.3 g ai/10a,2
same,Herbicidal effects Po,pale smartweed (Po); [4],5
same,Herbicidal effects Di,Diaitaria ciliaris (Di); [4],5
same,Herbicidal effects Ch,[2]; [4],5
same,Herbicidal effects Am,slender amaranth (Am); [4],5
same,Herbicidal effects Ci,rice flatsedge (Ci); [4],5
same,Herbicidal effects Ec,barnyardgrass (Ec) [3]; [4],5
"Cn1c(C(F)(F)F)ccc(-c2c(F)cc(Cl)c3occc23)c1=O [Compound No. 4-28, 3-(7-chloro-5-fluorobenzofuran-4-yl)-1-methyl-6-trifluoromethyl-2-(1H)-pyridone]",Phytotoxicity Tr,wheat (Tr); dose 6.3 g ai/10a,2
same,Herbicidal effects Mo,monochoria (Mo),5
same,Herbicidal effects Ec,barnyardgrass (Ec) [1],5
same,Herbicidal effects Sc,bulrush (Sc),5
same,Phytotoxicity Gl,soybean (Gl); dose 1.6 g ai/10a,2
same,Herbicidal effects Po,pale smartweed (Po); [4],5
same,Herbicidal effects Di,Diaitaria ciliaris (Di); [4],5
same,Herbicidal effects Ch,[2]; [4],5
same,Herbicidal effects Am,slender amaranth (Am); [4],5
same,Herbicidal effects Ci,rice flatsedge (Ci); [4],5
same,Herbicidal effects Ec,barnyardgrass (Ec) [3]; [4],4
"Cn1cc(-c2cc(Oc3ccccc3)c(Cl)cc2F)c(=O)cc1C(F)(F)F [Compound No. 6-19, 5-(4-chloro-2-fluoro-5-phenoxyphenyl)-1-methyl-2-trifluoromethyl-4(1H)-pyridone]",Phytotoxicity Tr,wheat (Tr); dose 1.6 g ai/10a,0
same,Phytotoxicity Tr,wheat (Tr); dose 6.3 g ai/10a,0
same,Herbicidal effects Mo,monochoria (Mo),5
same,Herbicidal effects Ec,barnyardgrass (Ec) [1],5
same,Herbicidal effects Sc,bulrush (Sc),5
same,Phytotoxicity Gl,soybean (Gl); dose 1.6 g ai/10a,0
same,Phytotoxicity Gl,soybean (Gl); dose 6.3 g ai/10a,0
same,Herbicidal effects Po,pale smartweed (Po); [4],5
same,Herbicidal effects Di,Diaitaria ciliaris (Di); [4],5
same,Herbicidal effects Ch,[2]; [4],5
same,Herbicidal effects Am,slender amaranth (Am); [4],5
same,Herbicidal effects Ci,rice flatsedge (Ci); [4],5
same,Herbicidal effects Ec,barnyardgrass (Ec) [3]; [4],5

# Source: patent US6472348B1, “Pyridone derivatives and herbicides” (Kumiai Chemical Industry Co., Ltd., priority 1996, dated 2002)
